What is called Ki is a dissociation constant, usually derived from enzyme kinetics or from competition with a known ligand.

Read-outs that look alike come from different tables or passages of the source.

One assay has as its target Rhesus PDE2A3 (Macaca mulatta, UniProt B3VTJ2). Nature of the assay: PDE2 fluorescence polarization (IMAP FP) inhibition assay, rhesus PDE2A3. Type of assay: biochemical, rhesus macaque. How it is done:
A Labcyte Echo 555 (Labcyte, Sunnyvale, Calif.) is used to dispense 200 nL from each well of the titration plate to the 384 well assay plate. Ten microliters of a solution of enzyme (1/2000 final dilution from aliquots; sufficient to produce 20% substrate conversion) was added to the assay plate. Next 10 uL of a separate solution of the substrate FAM-labeled cAMP (50 nM final concentration product # R^7506 from Molecular Devices) and the activator cGMP (1 uM final concentration), prepared in the assay buffer (10 mM Tris HCl, pH 7.2, 10 mM MgCl2, 0.05% NaN3 0.01% Tween-20, and 1 mM DTT) was added to the assay plate and shaken to mix. The reaction is allowed to proceed at room temperature for 60 minutes. A binding solution is then made from the kit components, comprised of 80% Solution A, 20% Solution B and binding reagent at a volume of 1/600 the total binding solution. The enzymatic reaction is stopped by addition of 60 μL of the binding solution to each well of the assay plates and the plates are sealed and shaken for 30 seconds. The plate was incubated at room temperature for at least one hour prior to determining the fluorescence polarization (FP). The parallel and perpendicular fluorescence of each well of the plate was measured using a Tecan Genios Pro plate reader (Tecan, Switzerland) or Perkin Elmer EnVision™ plate reader (Waltham, Mass.). Fluorescence polarization (mP) was calculated from the parallel (S) and perpendicular (P) fluorescence of each sample well and the analogous values for the median control well, containing only substrate (So and Po), using the following equation: Polarization (mP)=1000*(S/So−P/Po)/(S/So+P/Po).
Dose-inhibition profiles for each compound were characterized by fitting the mP data to a four-parameter equation given below.
An apparent (KM) for FAM-labeled cAMP of ˜10 uM was used.

In the next assay the target is human PDE2A1 (Homo sapiens (Human), UniProt O00408). Nature of the assay: PDE2 IMAP FP inhibition assay, human PDE2A1 (selectivity panel format). Type of assay: biochemical. In short, it runs like this: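 IMAP fluorescence polarization assay; substrate 50 nM FAM-cAMP with 1000 nM cGMP, enzyme at ~20% conversion, in 10 mM Tris pH 7.2, 10 mM MgCl2, 1 mM DTT, 0.01% Tween-20. 60 min room temperature, stopped with IMAP binding reagent, 1 h, then parallel/perpendicular fluorescence read.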
Sequence of human PDE2A1 (O00408 other isoform, or with tags, fused parts or gaps): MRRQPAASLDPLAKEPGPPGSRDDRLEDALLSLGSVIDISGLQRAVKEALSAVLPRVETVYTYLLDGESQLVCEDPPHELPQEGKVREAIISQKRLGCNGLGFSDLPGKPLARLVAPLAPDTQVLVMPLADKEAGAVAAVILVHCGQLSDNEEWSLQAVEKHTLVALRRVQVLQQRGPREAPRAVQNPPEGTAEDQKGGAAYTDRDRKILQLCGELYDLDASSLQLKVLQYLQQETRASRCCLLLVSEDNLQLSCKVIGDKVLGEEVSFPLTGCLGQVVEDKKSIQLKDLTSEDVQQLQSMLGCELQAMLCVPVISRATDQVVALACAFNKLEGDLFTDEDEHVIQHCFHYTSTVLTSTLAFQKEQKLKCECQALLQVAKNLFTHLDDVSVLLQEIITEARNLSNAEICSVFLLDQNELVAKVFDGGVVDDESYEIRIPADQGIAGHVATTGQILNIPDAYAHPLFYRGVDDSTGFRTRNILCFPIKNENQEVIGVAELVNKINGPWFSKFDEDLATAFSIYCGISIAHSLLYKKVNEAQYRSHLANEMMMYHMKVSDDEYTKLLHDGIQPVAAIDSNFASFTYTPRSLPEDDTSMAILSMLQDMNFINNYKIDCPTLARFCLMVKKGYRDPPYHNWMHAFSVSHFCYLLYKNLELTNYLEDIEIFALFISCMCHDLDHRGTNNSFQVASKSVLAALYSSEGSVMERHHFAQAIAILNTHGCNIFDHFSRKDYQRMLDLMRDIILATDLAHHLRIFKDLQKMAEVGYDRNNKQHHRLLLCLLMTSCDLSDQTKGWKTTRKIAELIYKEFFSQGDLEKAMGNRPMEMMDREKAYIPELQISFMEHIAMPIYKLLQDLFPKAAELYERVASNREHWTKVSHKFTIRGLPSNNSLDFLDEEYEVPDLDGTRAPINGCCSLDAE

Where [1] appears, read: Lab A, read-out: Rhesus PDE2 Ki (nM) - Lab A.
Setting [2] is: Lab B, read-out: Rhesus PDE2 Ki (nM) - Lab B.
[3] abbreviates: Lab B, read-out: Human PDE2 Ki (nM) - Lab B.
The mark [4] stands for this setting: Lab A, read-out: Human PDE2 Ki (nM) - Lab A.

Sequence of Rhesus PDE2A3 (B3VTJ2 1-941): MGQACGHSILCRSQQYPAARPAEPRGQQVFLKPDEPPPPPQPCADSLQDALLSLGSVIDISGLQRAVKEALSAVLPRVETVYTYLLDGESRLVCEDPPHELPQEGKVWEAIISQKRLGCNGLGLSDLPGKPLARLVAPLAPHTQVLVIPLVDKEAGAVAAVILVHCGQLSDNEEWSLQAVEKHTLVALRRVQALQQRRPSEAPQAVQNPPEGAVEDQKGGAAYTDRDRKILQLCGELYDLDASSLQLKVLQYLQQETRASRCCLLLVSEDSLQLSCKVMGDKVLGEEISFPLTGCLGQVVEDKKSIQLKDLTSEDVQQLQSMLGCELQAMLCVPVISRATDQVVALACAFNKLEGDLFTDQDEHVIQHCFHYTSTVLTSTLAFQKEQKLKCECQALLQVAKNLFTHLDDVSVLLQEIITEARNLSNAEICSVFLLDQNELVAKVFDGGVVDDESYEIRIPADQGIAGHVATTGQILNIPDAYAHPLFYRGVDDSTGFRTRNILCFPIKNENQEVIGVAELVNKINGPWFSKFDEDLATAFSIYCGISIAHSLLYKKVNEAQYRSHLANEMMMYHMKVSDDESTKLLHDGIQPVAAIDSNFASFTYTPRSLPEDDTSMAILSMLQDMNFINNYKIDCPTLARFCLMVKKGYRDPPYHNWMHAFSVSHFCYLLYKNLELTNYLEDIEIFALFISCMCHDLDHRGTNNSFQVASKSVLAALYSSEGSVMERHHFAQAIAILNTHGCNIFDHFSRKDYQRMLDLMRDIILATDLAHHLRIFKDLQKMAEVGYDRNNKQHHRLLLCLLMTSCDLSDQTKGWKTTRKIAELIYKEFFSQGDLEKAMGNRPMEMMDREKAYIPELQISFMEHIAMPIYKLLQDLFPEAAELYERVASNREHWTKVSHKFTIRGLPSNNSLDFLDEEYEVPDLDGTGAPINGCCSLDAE

In the case of `CN(C)c1nc(C(=O)N[C@@H](c2ccc(OC(F)(F)F)c(Cl)c2)C2CC2)cc(=O)[nH]1` [Example 85, N-[(R)-[3-chloro-4-(trifluoromethoxy)phenyl](cyclopropyl)methyl]-2-(dimethylamino)-6-oxo-1,6-dihydropyrimidine-4-carboxamide], the values for the Ki on Rhesus PDE2A3 (setting [1]), at Rhesus PDE2A3 (setting [2]) and on human PDE2A1 (setting [3]) were 2 nM, 4.9 nM and 3.6 nM, respectively.
Take `C[C@@H](NC(=O)c1cc(=O)[nH]c(N2CCCC2)n1)c1ccc(OC(F)(F)F)cc1` [Example 28, 6-oxo-2-pyrrolidin-1-yl-N-{(1R)-1-[4-(trifluoromethoxy)phenyl]ethyl}-1,6-dihydropyrimidine-4-carboxamide]: the Ki turned out to be 1.3 nM at Rhesus PDE2A3 (setting [1]) and 0.45 nM at human PDE2A1 (setting [4]).
`C[C@@H](NC(=O)c1cc(=O)[nH]c(N(C)C)n1)c1cc(F)c(C(F)(F)F)cc1F` [Example 36, N-{(1R)-1-[2,5-difluoro-4-(trifluoromethyl)phenyl]ethyl}-2-(dimethylamino)-6-oxo-1,6-dihydropyrimidine-4-carboxamide]: the figures for the Ki on Rhesus PDE2A3 (setting [2]) and at human PDE2A1 (setting [3]) were 4.9 nM and 7.7 nM, respectively.
Regarding `C[C@@H](NC(=O)c1cc(=O)[nH]c(NC2CCCC2)n1)c1ccc(C(F)(F)F)cc1` [Example 139, 2-(cyclopentylamino)-6-oxo-N-{(1R)-1-[4-(trifluoromethyl)phenyl]ethyl}-1,6-dihydropyrimidine-4-carboxamide], the Ki on Rhesus PDE2A3 (setting [1]) is 109 nM; on human PDE2A1 (setting [4]), 56 nM.
As to `CC(C)[C@@H](NC(=O)c1cc(=O)[nH]c(N(C)C)n1)c1ccc(OC(F)(F)F)c(F)c1` [Example 149, 2-(dimethylamino)-N-{(1R)-1-[3-fluoro-4-(trifluoro-methoxy)phenyl]-2-methylpropyl}-6-oxo-1,6-dihydropyrimidine-4-carboxamide], the Ki on Rhesus PDE2A3 (setting [1]) is 0.48 nM; on Rhesus PDE2A3 (setting [2]) it was 0.51 nM; on human PDE2A1 (setting [3]), 0.42 nM.
For `O=C(N[C@@H](c1ccc(OC(F)(F)F)c(F)c1)C1CC1)c1cc(=O)[nH]c(N2CCCC2)n1` [Example 25, N-{(R)-cyclopropyl[3-fluoro-4-(trifluoromethoxy)phenyl]methyl}-6-oxo-2-pyrrolidin-1-yl-1,6-dihydropyrimidine-4-carboxamide], the Ki at Rhesus PDE2A3 (setting [1]) was 0.85 nM; on human PDE2A1 (setting [4]), 0.37 nM.
In the case of `C[C@@H](NC(=O)c1cc(=O)[nH]c(Nc2ccccn2)n1)c1ccc(C(F)(F)F)cc1` [Example 136, 6-oxo-2-(pyridin-2-ylamino)-N-{(1R)-1-[4-(trifluoromethyl)phenyl]ethyl}-1,6-dihydropyrimidine-4-carboxamide], the Ki on Rhesus PDE2A3 (setting [1]) amounted to 610 nM; on human PDE2A1 (setting [4]), 491 nM.
On to `Cc1cc(C(F)(F)F)ccc1C(C)(C)NC(=O)c1cc(=O)[nH]c(N(C)C)n1` [Example 78, 2-(dimethylamino)-N-{1-methyl-1-[2-methyl-4-(trifluoromethyl)phenyl]ethyl}-6-oxo-1,6-dihydropyrimidine-4-carboxamide], for which the Ki was determined as 2.3 nM at Rhesus PDE2A3 (setting [2]) and 2.2 nM on human PDE2A1 (setting [3]).
On to `C[C@H](NC(=O)c1cc(=O)[nH]c(N(C)C)n1)c1ccc(S(F)(F)(F)(F)F)cc1F` [Example 117, (S)-2-(dimethylamino)-N-(1-(4-(pentafluorothio)-2-fluorophenyl)ethyl)-6-oxo-1,6-dihydropy-rimidine-4-carboxamide], for which the Ki amounted to 2.5 nM at Rhesus PDE2A3 (setting [2]) and 2.1 nM on human PDE2A1 (setting [3]).
Consider `CCOc1nc(C(=O)N[C@H](C)c2ccc(C(F)(F)F)cc2)cc(=O)[nH]1` [Example 18, (R)-2-ethoxy-6-oxo-N-(1-(4-(trifluoromethyl)phenyl)ethyl)-1,6-dihydropyrimidine-4-carboxamide], for which the Ki on Rhesus PDE2A3 (setting [1]) is 63 nM; on human PDE2A1 (setting [4]), 72 nM.
Turning to `C[C@@H](NC(=O)c1cc(=O)[nH]c(NC2CC2)n1)c1ccc(C(F)(F)F)cc1` [Example 140, 2-(cyclopropylamino)-6-oxo-N-{(1R)-1-[4-(trifluoromethyl)phenyl]ethyl}-1,6-dihydropyrimidine-4-carboxamide], the Ki worked out at 54 nM at Rhesus PDE2A3 (setting [1]) and 51 nM at human PDE2A1 (setting [4]).
As for `C[C@@H](NC(=O)c1cc(=O)[nH]c(N)n1)c1ccc(C(F)(F)F)cc1` [Example 134, 2-amino-6-oxo-N-{(1R)-1-[4-(trifluoromethyl)phenyl]ethyl}-1,6-dihydropyrimidine-4-carboxamide], the Ki at Rhesus PDE2A3 (setting [1]) was determined as 272 nM; on human PDE2A1 (setting [4]) it was 144 nM.
`CCN(C)c1nc(C(=O)N[C@H](C)c2ccc(C(F)(F)F)cc2)cc(=O)[nH]1` [Example 141, 2-[ethyl(methyl)amino]-6-oxo-N-{(1R)-1-[4-(trifluoromethyl)phenyl]ethyl}-1,6-dihydropyrimidine-4-carboxamide]: the Ki on Rhesus PDE2A3 (setting [1]) was 10.3 nM; on human PDE2A1 (setting [4]) it was 6 nM.
Regarding `CSc1nc(C(=O)N[C@H](C)c2ccc(C(F)(F)F)cc2)cc(=O)[nH]1` [Example 15, (R)-2-(methylthio)-6-oxo-N-(1-(4-(trifluoromethyl)phenyl)ethyl)-1,6-dihydropyrimidine-4-carboxamide], the values for the Ki on Rhesus PDE2A3 (setting [1]) and on human PDE2A1 (setting [4]) were 46 nM and 31 nM, respectively.
With `CN(C)c1nc(C(=O)NC(C)(C)c2ccc(S(F)(F)(F)(F)F)cc2)cc(=O)[nH]1` [Example 118, 2-(Dimethylamino)-N-{1-methyl-1-[4-(pentafluoro-λ^6-sulfanyl)phenyl]ethyl}-6-oxo-1,6-dihydropyrimidine-4-carboxamide], the Ki worked out at 224 nM on Rhesus PDE2A3 (setting [2]) and 140 nM on human PDE2A1 (setting [3]).
For the compound `COc1ccc(Oc2nc(C(=O)N[C@H](C)c3ccc(C(F)(F)F)cc3)cc(=O)[nH]2)cc1OC` [Example 22, (R)-2-(3,4-dimethoxyphenoxy)-6-oxo-N-(1-(4-(trifluoromethyl)phenyl)ethyl)-1,6-dihydropyrimidine-4-carboxamide], the figures for the Ki on Rhesus PDE2A3 (setting [1]) and at human PDE2A1 (setting [4]) were 727 nM and 988 nM, respectively.
Consider `CN(C)c1nc(C(=O)NC(C)(C)c2ccc(C(F)(F)F)cc2F)cc(=O)[nH]1` [Example 82, 2-(dimethylamino)-N-{1-[2-fluoro-4-(trifluoromethyl)phenyl]-1-methylethyl}-6-oxo-1,6-dihydropyrimidine-4-carboxamide], for which the Ki on Rhesus PDE2A3 (setting [2]) was 2 nM; at human PDE2A1 (setting [3]) it was 2.5 nM.
Taken in the same sequence, the figures for `CN(C)c1nc(C(=O)NC2(c3ccc(C(C)(C)C)cc3)CC2)cc(=O)[nH]1` [Example 46, N-[1-(4-tert-butylphenyl)cyclopropyl]-2-(dimethylamino)-6-oxo-1,6-dihydropyrimidine-4-carboxamide] were 3.4 nM and 3.6 nM.
For `COCCCOc1nc(C(=O)NC(C)c2ccc(C(F)(F)F)cc2)cc(=O)[nH]1` (stereo not drawn) [Example 179, 2-(3-methoxypropoxy)-6-oxo-N-{1-[4-(trifluoromethyl)phenyl]ethyl}-1,6-dihydropyrimidine-4-carboxamide], the values for the Ki on Rhesus PDE2A3 (setting [1]) and at human PDE2A1 (setting [4]) were 108 nM and 75 nM, respectively.
In the case of `CC(C)C(C)(NC(=O)c1cc(=O)[nH]c(N(C)C)n1)c1ccc(S(F)(F)(F)(F)F)cc1` (stereo not drawn) [Example 39, 2-(dimethylamino)-N-{1,2-dimethyl-1-[4-(pentafluoro-λ^6-sulfanyl)phenyl]propyl}-6-oxo-1,6-dihydropyrimidine-4-carboxamide], the Ki worked out at 8.7 nM on Rhesus PDE2A3 (setting [2]) and 12 nM at human PDE2A1 (setting [3]).
`C[C@@H](NC(=O)c1cc(=O)[nH]c(N2CCOCC2)n1)c1ccc(C(F)(F)F)cc1` [Example 132, 2-morpholin-4-yl-6-oxo-N-{(1R)-1-[4-(trifluoromethyl)phenyl]ethyl}-1,6-dihydropyrimidine-4-carboxamide]: the Ki is 60 nM on Rhesus PDE2A3 (setting [1]) and 30 nM at human PDE2A1 (setting [4]).
In the case of `COCC1CCN(c2nc(C(=O)N[C@@H](c3ccc(C(F)(F)F)cc3)C(C)(C)C)cc(=O)[nH]2)C1` (stereo partly drawn) [Example 14, N—((R)-2,2-dimethyl-1-(4-(trifluoromethyl)phen)propyl)-2-(3-(methoxymethyl)pyrrolidin-1-yl)-6-oxo-1,6-dihydropyrimidine-4-carboxamide], the Ki at Rhesus PDE2A3 (Rhesus PDE2 Ki (nM) - Lab B, Lab B) turned out to be 0.41 nM; on human PDE2A1 (setting [3]) it was 0.34 nM.
Consider `CN(C)c1nc(C(=O)NC(c2ccc(C3(C)CC3)c(F)c2)C(C)(C)C)cc(=O)[nH]1` (single isomer, unassigned) [Example 124, (R)- or (S)-2-(dimethylamino)-N-{1-[3-fluoro-4-(1-methylcyclopropyl)phenyl]-2,2-dimethylpropyl}-6-oxo-1,6-dihydropyrimidine-4-carboxamide], for which the Ki came out at 0.45 nM at Rhesus PDE2A3 (setting [2]) and 0.34 nM at human PDE2A1 (setting [3]).

Source of the values: patent publication US10285989B2, “Pyrimidinone amide compounds as PDE2 inhibitors” (Merck Sharp & Dohme Corp., priority 2015, dated 2019).
